Data from patent US12052991B2, “Substituted pyridinyloxybenzenes and salts thereof and use thereof as herbicidal agents” (Bayer Aktiengesellschaft, priority 2018, dated 2024).

Tests used:
Format in all cases: in vivo
[1] = test system: Echinochloa crus-galli (ECHCG); experiment: Herbicidal post-emergence action (Table B1); conditions: rated visually after about 3 weeks, 100% = plants have died, 0% = like control plants
Method in brief: (§1)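 Greenhouse pot-grown weeds in sandy loam, sprayed at the one-leaf stage (2–3 weeks post-sowing) with WP or EC formulations plus 0.5% additive at 600 l/ha water, at 1280 or 320 g/ha. Visual % activity versus untreated controls rated about 3 weeks later (100% = dead).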

[2] = test system: Matricaria inodora (MATIN); experiment: Herbicidal post-emergence action (Table B7); conditions: 1280 g/ha; rated visually after about 3 weeks; 100% = plants have died, 0% = like control plants
Procedure: (§2) Seeds of mono- and dicotyledonous weed plants were placed in plastic pots in sandy loam soil (doubly sown with in each case one species of mono- or dicotyledonous weed plants per pot), covered with soil and cultivated in a greenhouse under controlled growth conditions. 2 to 3 weeks after sowing, the test plants were treated at the one-leaf stage. The compounds of the invention, formulated in the form of wettable powders (WP) or as emulsion concentrates (EC), were applied onto the green parts of the plants as aqueous suspension or emulsion with addition of 0.5% additive at a water application rate of 600 liters per hectare (converted). After the test plants had been kept in the greenhouse under optimum growth conditions for about 3 weeks, the activity of the preparations was rated visually in comparison to untreated controls. For example, 100% activity=the plants have died, 0% activity=like control plants. Tables B1 to B12 below show the effects of selected compounds of the general formula (I) according to Table 1 on various harmful plants and an application rate corresponding to 1280 or 320 g/ha, which were obtained by the experimental procedure mentioned above.

[3] = test system: Alopecurus myosuroides (ALOMY); experiment: Herbicidal post-emergence action (Table B9); conditions: rated visually after about 3 weeks, 100% = plants have died, 0% = like control plants
Method in brief: as §1

[4] = test system: Veronica persica (VERPE); experiment: Herbicidal post-emergence action (Table B12); conditions: visual rating about 3 weeks after treatment, 100% = plants have died, 0% = like control plants
Method in brief: as §1

[5] = test system: harmful plants ABUTH, AMARE, ECHCG, LOLRI, MATIN, POAAN, SETVI, STEME, ALOMY, DIGSA, KCHSC and VERPE; experiment: Herbicidal post-emergence action, summary of Tables B1-B12; conditions: application rate of 1280 or 320 g of active ingredient per hectare; summary in words
Method in brief: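 Greenhouse weeds in sandy loam treated post-emergence at the one-leaf stage, 2–3 weeks after sowing, with WP or EC formulations sprayed with 0.5% additive at 600 L/ha water, 1280 or 320 g/ha. Damage rated visually after about 3 weeks versus untreated controls (0% = like control, 100% = dead).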

[6] = test system: Lolium rigidum (LOLRI); experiment: Herbicidal post-emergence action (Table B2); conditions: 1280 g/ha; rated visually after about 3 weeks; 100% = plants have died, 0% = like control plants
Procedure: as §2

[7] = test system: Poa annua (POAAN); experiment: Herbicidal post-emergence action (Table B3); conditions: rated visually after about 3 weeks, 100% = plants have died, 0% = like control plants
Method in brief: as §1

[8] = test system: Setaria viridis (SETVI); experiment: Herbicidal post-emergence action (Table B4); conditions: 1280 g/ha; rated visually after about 3 weeks; 100% = plants have died, 0% = like control plants
Procedure: as §2

[9] = test system: Abutilon theophrasti (ABUTH); experiment: Herbicidal post-emergence action (Table B5); conditions: rated visually after about 3 weeks, 100% = plants have died, 0% = like control plants
Method in brief: as §1

[10] = test system: Amaranthus retroflexus (AMARE); experiment: Herbicidal post-emergence action (Table B6); conditions: visual rating about 3 weeks after treatment, 100% = plants have died, 0% = like control plants
Method in brief: as §1

[11] = test system: Stellaria media (STEME); experiment: Herbicidal post-emergence action (Table B8); conditions: visual rating about 3 weeks after treatment, 100% = plants have died, 0% = like control plants
Method in brief: as §1

[12] = test system: Digitaria sanguinalis (DIGSA); experiment: Herbicidal post-emergence action (Table B10); conditions: visual rating about 3 weeks after treatment, 100% = plants have died, 0% = like control plants
Method in brief: as §1

[13] = test system: Bassia scoparia (KCHSC); experiment: Herbicidal post-emergence action (Table B11); conditions: visual rating about 3 weeks after treatment, 100% = plants have died, 0% = like control plants
Method in brief: as §1

[14] = test system: Echinochloa crus-galli (ECHCG); experiment: Herbicidal pre-emergence action, test C (Table C1); conditions: dosage 1280 g/ha; visual scoring after about 3 weeks; 100% = plants have died, 0% = like control plants
Method in brief: (§3)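 Compounds formulated as WP or EC were sprayed onto soil covering freshly sown weed seeds at 600 L/ha water with 0.5% additive, at 1280 or 320 g/ha. Pots were kept in a greenhouse. After about 3 weeks, damage was scored visually as % versus untreated controls (100% = plants dead).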

[15] = test system: Lolium rigidum (LOLRI); experiment: Herbicidal pre-emergence action, test C (Table C2); conditions: dosage 1280 g/ha; visual scoring after about 3 weeks; 100% = plants have died, 0% = like control plants
Method in brief: as §3

[16] = test system: Poa annua (POAAN); experiment: Herbicidal pre-emergence action, test C (Table C3); conditions: visual scoring after about 3 weeks, 100% = plants have died, 0% = like control plants
Method in brief: as §3

[17] = test system: Setaria viridis (SETVI); experiment: Herbicidal pre-emergence action, test C (Table C4); conditions: visual scoring after about 3 weeks, 100% = plants have died, 0% = like control plants
Method in brief: as §3

[18] = test system: Abutilon theophrasti (ABUTH); experiment: Herbicidal pre-emergence action, test C (Table C5); conditions: visual scoring after about 3 weeks, 100% = plants have died, 0% = like control plants
Method in brief: as §3

[19] = test system: Amaranthus retroflexus (AMARE); experiment: Herbicidal pre-emergence action, test C (Table C6); conditions: visual scoring after about 3 weeks, 100% = plants have died, 0% = like control plants
Method in brief: as §3

[20] = test system: Matricaria inodora (MATIN); experiment: Herbicidal pre-emergence action, test C (Table C7); conditions: dosage 1280 g/ha; visual scoring after about 3 weeks; 100% = plants have died, 0% = like control plants
Method in brief: as §3

[21] = test system: Stellaria media (STEME); experiment: Herbicidal pre-emergence action, test C (Table C8); conditions: visual scoring after about 3 weeks, 100% = plants have died, 0% = like control plants
Method in brief: as §3

[22] = test system: Alopecurus myosuroides (ALOMY); experiment: Herbicidal pre-emergence action, test C (Table C9); conditions: dosage 1280 g/ha; visual scoring after about 3 weeks; 100% = plants have died, 0% = like control plants
Method in brief: as §3

[23] = test system: Digitaria sanguinalis (DIGSA); experiment: Herbicidal pre-emergence action, test C (Table C10); conditions: visual scoring after about 3 weeks, 100% = plants have died, 0% = like control plants
Method in brief: as §3

[24] = test system: Bassia scoparia (KCHSC); experiment: Herbicidal pre-emergence action, test C (Table C11); conditions: visual scoring vs untreated controls
Method in brief: as §3

[25] = test system: Veronica persica (VERPE); experiment: Herbicidal pre-emergence action, test C (Table C12); conditions: visual scoring vs untreated controls
Method in brief: as §3

[26] = test system: harmful plants ABUTH, AMARE, ECHCG, LOLRI, MATIN, POAAN, SETVI, STEME, ALOMY, DIGSA, KCHSC and VERPE; experiment: Herbicidal pre-emergence action (test C), summary of Tables C1-C12; conditions: application rate of 1280 or 320 g of active ingredient per hectare; summary in words
Method in brief: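 Pre-emergence pot test in sandy loam: WP or EC formulations were sprayed onto the covering soil with 0.5% additive at 600 L/ha water, at 1280 or 320 g/ha. Plants were kept in the greenhouse, and activity was rated visually about 3 weeks later as % versus untreated controls (100% = dead).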

Clc1ccc(Oc2ccccc2-c2ccc(Cl)cn2)nc1 [Example 1-75]
Post-emergence action against Echinochloa crus-galli (ECHCG) ([1]; 1280 g/ha): 100% | Post-emergence action against Matricaria inodora (MATIN) [2]: 100% | Post-emergence action against Alopecurus myosuroides (ALOMY) ([3]; 1280 g/ha): 90% | Post-emergence action against Veronica persica (VERPE) ([4]; dosage 1280 g/ha): 100% | herbicidal activity against the harmful plants of Tables B1-B12 in post-emergence treatment [5]: very good herbicidal activity

Fc1ccc(Oc2ncc(Cl)cc2F)c(-c2cc(C(F)F)on2)c1 [Example 1-31]
Post-emergence action against Echinochloa crus-galli (ECHCG) ([1]; 320 g/ha): 90% | Post-emergence action against Echinochloa crus-galli (ECHCG) ([1]; 1280 g/ha): 100% | Post-emergence action against Lolium rigidum (LOLRI) [6]: 90% | Post-emergence action against Poa annua (POAAN) ([7]; 320 g/ha): 100% | Post-emergence action against Poa annua (POAAN) ([7]; 1280 g/ha): 100% | Post-emergence action against Setaria viridis (SETVI) [8]: 100% | Post-emergence action against Abutilon theophrasti (ABUTH) ([9]; 320 g/ha): 90% | Post-emergence action against Abutilon theophrasti (ABUTH) ([9]; 1280 g/ha): 100% | Post-emergence action against Amaranthus retroflexus (AMARE) ([10]; dosage 320 g/ha): 100% | Post-emergence action against Amaranthus retroflexus (AMARE) ([10]; dosage 1280 g/ha): 100% | Post-emergence action against Stellaria media (STEME) ([11]; dosage 320 g/ha): 100% | Post-emergence action against Stellaria media (STEME) ([11]; dosage 1280 g/ha): 100% | Post-emergence action against Alopecurus myosuroides (ALOMY) ([3]; 320 g/ha): 100% | Post-emergence action against Alopecurus myosuroides (ALOMY) ([3]; 1280 g/ha): 100% | Post-emergence action against Digitaria sanguinalis (DIGSA) ([12]; dosage 320 g/ha): 90% | Post-emergence action against Digitaria sanguinalis (DIGSA) ([12]; dosage 1280 g/ha): 100% | Post-emergence action against Bassia scoparia (KCHSC) ([13]; dosage 320 g/ha): 90% | Post-emergence action against Bassia scoparia (KCHSC) ([13]; dosage 1280 g/ha): 100% | Post-emergence action against Veronica persica (VERPE) ([4]; dosage 320 g/ha): 100% | Post-emergence action against Veronica persica (VERPE) ([4]; dosage 1280 g/ha): 100% | Pre-emergence action against Echinochloa crus-galli (ECHCG) [14]: 100% | Pre-emergence action against Lolium rigidum (LOLRI) [15]: 100% | Pre-emergence action against Poa annua (POAAN) ([16]; dosage 320 g/ha): 90% | Pre-emergence action against Poa annua (POAAN) ([16]; dosage 1280 g/ha): 100% | Pre-emergence action against Setaria viridis (SETVI) ([17]; dosage 320 g/ha): 100% | Pre-emergence action against Setaria viridis (SETVI) ([17]; dosage 1280 g/ha): 100% | Pre-emergence action against Abutilon theophrasti (ABUTH) ([18]; dosage 320 g/ha): 90% | Pre-emergence action against Abutilon theophrasti (ABUTH) ([18]; dosage 1280 g/ha): 100% | Pre-emergence action against Amaranthus retroflexus (AMARE) ([19]; dosage 320 g/ha): 100% | Pre-emergence action against Amaranthus retroflexus (AMARE) ([19]; dosage 1280 g/ha): 100% | Pre-emergence action against Matricaria inodora (MATIN) [20]: 90% | Pre-emergence action against Stellaria media (STEME) ([21]; dosage 320 g/ha): 100% | Pre-emergence action against Stellaria media (STEME) ([21]; dosage 1280 g/ha): 100% | Pre-emergence action against Alopecurus myosuroides (ALOMY) [22]: 100% | Pre-emergence action against Digitaria sanguinalis (DIGSA) ([23]; dosage 320 g/ha): 90% | Pre-emergence action against Digitaria sanguinalis (DIGSA) ([23]; dosage 1280 g/ha): 100% | Pre-emergence action against Bassia scoparia (KCHSC) ([24]; dosage 320 g/ha): 90% | Pre-emergence action against Bassia scoparia (KCHSC) ([24]; dosage 1280 g/ha): 100% | Pre-emergence action against Veronica persica (VERPE) ([25]; dosage 320 g/ha): 100% | Pre-emergence action against Veronica persica (VERPE) ([25]; dosage 1280 g/ha): 100% | herbicidal activity against the harmful plants of Tables B1-B12 in post-emergence treatment [5]: very good herbicidal activity | herbicidal activity against the harmful plants of Tables C1-C12 in pre-emergence treatment [26]: very good herbicidal activity
